From article PMC5290327, “SC83288 is a clinical development candidate for the treatment of severe malaria” (Nature Communications, 2017)

Columns and labels:
Experiment in all cases: KINOMEscan
Assay type in all cases: binding
Settings in all cases: read-out: Remaining enzyme activity
[1] = target: T1, RAF1 (Homo sapiens, UniProt P04049)
T1 construct: purchased Ambit (DiscoverX) KINOMEscan; Cerep
Outline: (§1)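 qPCR of a DNA tag reports how much kinase stays bound to ligand-coated beads in the presence of 10 μM SC81458, diluted from a DMSO stock. Kinase sources were T7 phage lysates from E. coli or HEK-293-expressed protein tagged with DNA.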

[2] = target: T2, FLT1 (Homo sapiens, UniProt P17948)
T2 construct: purchased Ambit (DiscoverX) KINOMEscan; Cerep
T2 sequence (P17948 27-1338): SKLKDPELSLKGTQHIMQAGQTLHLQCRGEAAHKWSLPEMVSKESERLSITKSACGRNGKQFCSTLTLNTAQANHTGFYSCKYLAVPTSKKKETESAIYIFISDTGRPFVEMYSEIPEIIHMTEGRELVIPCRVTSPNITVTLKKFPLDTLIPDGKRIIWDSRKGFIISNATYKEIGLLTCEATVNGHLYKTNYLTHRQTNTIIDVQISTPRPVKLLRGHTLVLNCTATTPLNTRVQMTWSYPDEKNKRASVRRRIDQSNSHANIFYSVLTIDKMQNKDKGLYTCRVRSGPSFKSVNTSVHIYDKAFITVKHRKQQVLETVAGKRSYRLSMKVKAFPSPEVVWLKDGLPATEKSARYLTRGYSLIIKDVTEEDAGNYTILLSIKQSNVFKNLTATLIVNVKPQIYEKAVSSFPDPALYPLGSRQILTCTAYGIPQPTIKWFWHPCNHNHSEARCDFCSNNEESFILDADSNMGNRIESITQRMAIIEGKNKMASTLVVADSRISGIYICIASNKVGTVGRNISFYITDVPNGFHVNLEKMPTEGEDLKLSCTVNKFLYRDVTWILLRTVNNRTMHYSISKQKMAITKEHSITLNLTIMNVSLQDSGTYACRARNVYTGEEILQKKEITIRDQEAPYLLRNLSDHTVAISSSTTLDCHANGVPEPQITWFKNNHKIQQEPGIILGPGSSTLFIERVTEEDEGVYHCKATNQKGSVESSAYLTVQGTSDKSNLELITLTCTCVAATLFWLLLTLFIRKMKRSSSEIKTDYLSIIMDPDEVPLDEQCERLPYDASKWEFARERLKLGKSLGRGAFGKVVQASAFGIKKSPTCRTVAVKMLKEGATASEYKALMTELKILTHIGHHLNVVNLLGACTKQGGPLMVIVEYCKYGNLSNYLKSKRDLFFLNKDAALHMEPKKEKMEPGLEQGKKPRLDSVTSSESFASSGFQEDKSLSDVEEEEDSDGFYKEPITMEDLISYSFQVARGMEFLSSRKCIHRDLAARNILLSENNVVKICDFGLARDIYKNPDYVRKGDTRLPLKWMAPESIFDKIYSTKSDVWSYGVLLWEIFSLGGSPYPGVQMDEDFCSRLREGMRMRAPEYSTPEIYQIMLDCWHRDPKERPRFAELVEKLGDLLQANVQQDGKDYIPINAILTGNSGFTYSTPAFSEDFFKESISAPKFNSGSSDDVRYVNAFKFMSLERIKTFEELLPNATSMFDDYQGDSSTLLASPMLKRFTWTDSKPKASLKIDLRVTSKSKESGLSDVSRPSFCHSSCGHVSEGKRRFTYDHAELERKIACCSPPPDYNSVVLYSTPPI
Outline: as §1

[3] = target: T3, MEK1 (Homo sapiens, UniProt Q02750)
T3 construct: purchased Ambit (DiscoverX) KINOMEscan; Cerep
Outline: as §1

[4] = target: T4, BIKE (Homo sapiens, UniProt Q9NSY1)
T4 construct: purchased Ambit (DiscoverX) KINOMEscan; Cerep
Outline: as §1

[5] = target: T5, MYO3b (Homo sapiens, UniProt Q8WXR4)
T5 construct: purchased Ambit (DiscoverX) KINOMEscan; Cerep
Outline: as §1

[6] = target: T6, ABL1(M351T) (Homo sapiens, UniProt P00519, M351T)
T6 construct: purchased Ambit (DiscoverX) KINOMEscan; Cerep
Outline: as §1

[7] = target: T7, EPHA2 (Homo sapiens, UniProt P29317)
T7 construct: purchased Ambit (DiscoverX) KINOMEscan; Cerep
Outline: as §1

[8] = target: T8, TTK (Homo sapiens, UniProt P33981)
T8 construct: purchased Ambit (DiscoverX) KINOMEscan; Cerep
Outline: as §1

[9] = target: T9, INSRR (Homo sapiens, UniProt P14616)
T9 construct: purchased Ambit (DiscoverX) KINOMEscan; Cerep
T9 sequence (P14616 27-1297): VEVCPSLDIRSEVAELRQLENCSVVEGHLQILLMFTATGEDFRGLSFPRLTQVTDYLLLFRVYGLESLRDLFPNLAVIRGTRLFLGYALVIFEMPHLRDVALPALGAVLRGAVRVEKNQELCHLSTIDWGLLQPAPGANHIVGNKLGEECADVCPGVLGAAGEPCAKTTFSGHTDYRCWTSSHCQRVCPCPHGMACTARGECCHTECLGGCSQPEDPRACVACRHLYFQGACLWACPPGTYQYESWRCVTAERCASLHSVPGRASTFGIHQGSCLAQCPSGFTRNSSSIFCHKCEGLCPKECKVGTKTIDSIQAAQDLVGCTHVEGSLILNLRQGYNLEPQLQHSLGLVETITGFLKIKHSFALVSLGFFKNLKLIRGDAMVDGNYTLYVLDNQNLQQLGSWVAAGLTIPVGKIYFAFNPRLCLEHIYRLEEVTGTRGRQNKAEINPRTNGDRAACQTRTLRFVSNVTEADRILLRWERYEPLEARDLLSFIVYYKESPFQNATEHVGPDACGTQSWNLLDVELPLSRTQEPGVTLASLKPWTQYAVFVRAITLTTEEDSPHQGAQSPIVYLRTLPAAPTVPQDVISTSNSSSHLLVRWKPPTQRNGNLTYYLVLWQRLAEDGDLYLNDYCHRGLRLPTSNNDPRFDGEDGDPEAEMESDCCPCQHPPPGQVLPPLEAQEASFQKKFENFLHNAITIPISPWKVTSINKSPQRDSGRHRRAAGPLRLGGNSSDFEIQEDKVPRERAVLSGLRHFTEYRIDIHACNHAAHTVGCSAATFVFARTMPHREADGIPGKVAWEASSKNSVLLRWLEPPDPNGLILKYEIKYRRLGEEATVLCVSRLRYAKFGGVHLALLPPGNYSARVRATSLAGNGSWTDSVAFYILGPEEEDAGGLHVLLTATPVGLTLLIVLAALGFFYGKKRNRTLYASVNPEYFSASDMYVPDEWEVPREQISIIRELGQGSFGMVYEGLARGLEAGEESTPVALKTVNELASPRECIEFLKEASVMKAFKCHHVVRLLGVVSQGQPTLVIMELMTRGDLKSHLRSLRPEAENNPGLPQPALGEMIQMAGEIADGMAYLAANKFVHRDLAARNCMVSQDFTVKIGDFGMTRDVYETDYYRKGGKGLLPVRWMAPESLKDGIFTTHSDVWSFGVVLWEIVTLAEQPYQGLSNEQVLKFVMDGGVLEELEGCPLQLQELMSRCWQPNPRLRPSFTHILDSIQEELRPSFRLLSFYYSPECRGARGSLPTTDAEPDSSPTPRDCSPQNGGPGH
Outline: as §1

[10] = target: T10, ERBB4 (Homo sapiens, UniProt Q15303)
T10 construct: purchased Ambit (DiscoverX) KINOMEscan; Cerep
Outline: as §1

[11] = target: T11, p38-gamma (Homo sapiens, UniProt P53778)
T11 construct: purchased Ambit (DiscoverX) KINOMEscan; Cerep
Outline: as §1

[12] = target: T12, FGFR1 (Homo sapiens, UniProt P11362)
T12 construct: purchased Ambit (DiscoverX) KINOMEscan; Cerep
Outline: as §1

[13] = target: T13, EPHA1 (Homo sapiens, UniProt P21709)
T13 construct: purchased Ambit (DiscoverX) KINOMEscan; Cerep
T13 sequence (P21709 26-976): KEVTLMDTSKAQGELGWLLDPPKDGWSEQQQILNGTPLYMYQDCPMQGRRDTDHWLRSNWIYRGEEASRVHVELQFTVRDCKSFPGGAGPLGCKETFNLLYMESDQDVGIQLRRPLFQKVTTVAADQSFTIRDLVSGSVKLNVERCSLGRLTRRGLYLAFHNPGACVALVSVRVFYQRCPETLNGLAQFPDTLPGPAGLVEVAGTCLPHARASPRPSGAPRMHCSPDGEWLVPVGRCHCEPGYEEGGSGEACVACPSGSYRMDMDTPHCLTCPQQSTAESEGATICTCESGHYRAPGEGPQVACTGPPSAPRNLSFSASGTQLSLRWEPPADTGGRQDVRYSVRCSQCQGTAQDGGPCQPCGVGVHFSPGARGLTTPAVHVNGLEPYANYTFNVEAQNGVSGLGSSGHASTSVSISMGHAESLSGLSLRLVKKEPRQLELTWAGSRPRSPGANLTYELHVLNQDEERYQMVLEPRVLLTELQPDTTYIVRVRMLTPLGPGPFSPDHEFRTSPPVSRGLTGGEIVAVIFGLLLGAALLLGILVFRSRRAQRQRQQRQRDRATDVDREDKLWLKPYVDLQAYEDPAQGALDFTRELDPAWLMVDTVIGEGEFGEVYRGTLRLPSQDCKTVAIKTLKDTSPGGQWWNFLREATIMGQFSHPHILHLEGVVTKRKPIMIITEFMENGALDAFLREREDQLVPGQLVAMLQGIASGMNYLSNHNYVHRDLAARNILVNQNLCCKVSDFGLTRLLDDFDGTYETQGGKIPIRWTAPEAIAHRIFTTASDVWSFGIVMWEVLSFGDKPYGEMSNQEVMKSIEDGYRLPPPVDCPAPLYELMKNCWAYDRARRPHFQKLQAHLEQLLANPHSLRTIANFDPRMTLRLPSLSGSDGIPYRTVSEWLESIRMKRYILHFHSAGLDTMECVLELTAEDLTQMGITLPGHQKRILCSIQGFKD
Outline: as §1

[14] = target: T14, SRC (Homo sapiens, UniProt P12931)
T14 construct: purchased Ambit (DiscoverX) KINOMEscan; Cerep
Outline: as §1

[15] = target: T15, PIK3CA(H1047L) (Homo sapiens, UniProt P42336, H1047L)
T15 construct: purchased Ambit (DiscoverX) KINOMEscan; Cerep
Outline: as §1

[16] = target: T16, ABL1(Q252H) (Homo sapiens, UniProt P00519, Q252H)
T16 construct: purchased Ambit (DiscoverX) KINOMEscan; Cerep
Outline: as §1

[17] = target: T17, PHKG2 (Homo sapiens, UniProt P15735)
T17 construct: purchased Ambit (DiscoverX) KINOMEscan; Cerep
Outline: as §1

[18] = target: T18, PIK3CA(E542K) (Homo sapiens, UniProt P42336, E542K)
T18 construct: purchased Ambit (DiscoverX) KINOMEscan; Cerep
Outline: as §1

[19] = target: T19, MAP3K15 (Homo sapiens, UniProt Q6ZN16)
T19 construct: purchased Ambit (DiscoverX) KINOMEscan; Cerep
Outline: as §1

[20] = target: T20, TEC (Homo sapiens, UniProt P42680)
T20 construct: purchased Ambit (DiscoverX) KINOMEscan; Cerep
Outline: as §1

[21] = target: T21, CSNK1g1 (Homo sapiens, UniProt Q9HCP0)
T21 construct: purchased Ambit (DiscoverX) KINOMEscan; Cerep
Outline: as §1

[22] = target: T22, PIK3CA(E545A) (Homo sapiens, UniProt P42336, E545A)
T22 construct: purchased Ambit (DiscoverX) KINOMEscan; Cerep
Outline: as §1

[23] = target: T23, QSK (Homo sapiens, UniProt Q9Y2K2)
T23 construct: purchased Ambit (DiscoverX) KINOMEscan; Cerep
Outline: as §1

[24] = target: T24, RET(M918T) (Homo sapiens, UniProt P07949, M918T)
T24 construct: purchased Ambit (DiscoverX) KINOMEscan; Cerep
Outline: as §1

[25] = target: T25, MAK (Homo sapiens, UniProt P20794)
T25 construct: purchased Ambit (DiscoverX) KINOMEscan; Cerep
T25 sequence (P20794 whole entry): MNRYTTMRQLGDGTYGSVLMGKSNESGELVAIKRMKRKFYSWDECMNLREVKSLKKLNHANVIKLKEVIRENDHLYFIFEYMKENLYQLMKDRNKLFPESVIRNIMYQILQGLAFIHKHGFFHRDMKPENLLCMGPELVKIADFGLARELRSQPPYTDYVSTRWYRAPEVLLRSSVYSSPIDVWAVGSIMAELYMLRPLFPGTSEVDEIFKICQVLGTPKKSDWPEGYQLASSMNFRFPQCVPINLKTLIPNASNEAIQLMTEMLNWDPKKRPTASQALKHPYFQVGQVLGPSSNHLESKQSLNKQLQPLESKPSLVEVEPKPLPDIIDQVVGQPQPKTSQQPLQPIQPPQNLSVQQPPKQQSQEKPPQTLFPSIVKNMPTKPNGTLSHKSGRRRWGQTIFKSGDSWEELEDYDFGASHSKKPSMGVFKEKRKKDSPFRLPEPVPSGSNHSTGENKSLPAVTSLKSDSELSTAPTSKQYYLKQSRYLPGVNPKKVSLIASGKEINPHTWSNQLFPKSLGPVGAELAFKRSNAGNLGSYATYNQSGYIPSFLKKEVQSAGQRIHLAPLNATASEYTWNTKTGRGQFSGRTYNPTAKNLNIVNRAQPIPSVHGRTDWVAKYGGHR
Outline: as §1

[26] = target: T26, EGFR(L858R) (Homo sapiens, UniProt P00533, L858R)
T26 construct: purchased Ambit (DiscoverX) KINOMEscan; Cerep
Outline: as §1

[27] = target: T27, JAK2(JH1domain-catalytic) (Homo sapiens, UniProt O60674)
T27 construct: JAK2(JH1domain-catalytic); purchased Ambit (DiscoverX) KINOMEscan; Cerep
Outline: as §1

[28] = target: T28, TAK1 (Homo sapiens, UniProt O43318)
T28 construct: purchased Ambit (DiscoverX) KINOMEscan; Cerep
Outline: as §1

[29] = target: T29, IKK-epsilon (Homo sapiens, UniProt Q14164)
T29 construct: purchased Ambit (DiscoverX) KINOMEscan; Cerep
T29 sequence (Q14164 whole entry): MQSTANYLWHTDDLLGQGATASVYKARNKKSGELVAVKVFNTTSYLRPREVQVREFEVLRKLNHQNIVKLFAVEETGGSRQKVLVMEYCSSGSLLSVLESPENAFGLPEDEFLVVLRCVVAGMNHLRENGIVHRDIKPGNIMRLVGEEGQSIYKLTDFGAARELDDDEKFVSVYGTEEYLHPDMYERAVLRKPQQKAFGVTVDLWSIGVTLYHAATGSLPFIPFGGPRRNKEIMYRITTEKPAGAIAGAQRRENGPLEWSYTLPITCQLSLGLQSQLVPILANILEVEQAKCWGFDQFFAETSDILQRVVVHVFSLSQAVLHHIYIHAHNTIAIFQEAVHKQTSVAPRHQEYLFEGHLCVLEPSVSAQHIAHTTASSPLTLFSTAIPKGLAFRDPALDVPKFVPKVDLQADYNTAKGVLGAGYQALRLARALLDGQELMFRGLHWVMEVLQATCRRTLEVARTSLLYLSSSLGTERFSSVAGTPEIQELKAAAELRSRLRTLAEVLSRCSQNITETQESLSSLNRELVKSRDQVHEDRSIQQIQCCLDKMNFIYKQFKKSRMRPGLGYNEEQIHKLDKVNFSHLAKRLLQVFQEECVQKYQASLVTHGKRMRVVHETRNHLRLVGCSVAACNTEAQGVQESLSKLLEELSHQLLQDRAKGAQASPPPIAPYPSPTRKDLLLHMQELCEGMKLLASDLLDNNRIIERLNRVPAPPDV
Outline: as §1

[30] = target: T30, DYRK1a (Homo sapiens, UniProt Q13627)
T30 construct: purchased Ambit (DiscoverX) KINOMEscan; Cerep
Outline: as §1

[31] = target: T31, ABL1(F317L) (Homo sapiens, UniProt P00519, F317L)
T31 construct: purchased Ambit (DiscoverX) KINOMEscan; Cerep
Outline: as §1

[32] = target: T32, CDK7 (Homo sapiens, UniProt P50613)
T32 construct: purchased Ambit (DiscoverX) KINOMEscan; Cerep
Outline: as §1

[33] = target: T33, MAP4K5 (Homo sapiens, UniProt Q9Y4K4)
T33 construct: purchased Ambit (DiscoverX) KINOMEscan; Cerep
Outline: as §1

## CCCCN1CCN(C(=N)c2cccc(NC(=O)Nc3ccc(S(=O)(=O)NCc4ccc(S(N)(=O)=O)cc4)cc3)c2)CC1 [SC81458, 4-(3-(3-((4-butylpiperazin-1-yl)(imino)methyl)phenyl)ureido)-N-(4-sulfamoylbenzyl) benzenesulfonamide]
[1]
  remaining binding at 10 µM: 100%
[2]
  remaining binding at 10 µM: 91%
[3]
  remaining binding at 10 µM: 100%
[4]
  remaining binding at 10 µM: 85%
[5]
  remaining binding at 10 µM: 100%
[6]
  remaining binding at 10 µM: 100%
[7]
  remaining binding at 10 µM: 99%
[8]
  remaining binding at 10 µM: 91%
[9]
  remaining binding at 10 µM: 95%
[10]
  remaining binding at 10 µM: 100%
[11]
  remaining binding at 10 µM: 85%
[12]
  remaining binding at 10 µM: 100%
[13]
  remaining binding at 10 µM: 91%
[14]
  remaining binding at 10 µM: 81%
[15]
  remaining binding at 10 µM: 100%
[16]
  remaining binding at 10 µM: 95%
[17]
  remaining binding at 10 µM: 100%
[18]
  remaining binding at 10 µM: 100%
[19]
  remaining binding at 10 µM: 100%
[20]
  remaining binding at 10 µM: 90%
[21]
  remaining binding at 10 µM: 100%
[22]
  remaining binding at 10 µM: 100%
[23]
  remaining binding at 10 µM: 100%
[24]
  remaining binding at 10 µM: 100%
[25]
  remaining binding at 10 µM: 91%
[26]
  remaining binding at 10 µM: 92%
[27]
  remaining binding at 10 µM: 100%
[28]
  remaining binding at 10 µM: 100%
[29]
  remaining binding at 10 µM: 100%
[30]
  remaining binding at 10 µM: 100%
[31]
  remaining binding at 10 µM: 100%
[32]
  remaining binding at 10 µM: 100%
[33]
  remaining binding at 10 µM: 100%
